{
  "source": "patent US9980928B2",
  "about": "“Hydroxy aliphatic substituted phenyl aminoalkyl ether derivatives” (PROUS INSTITUTE FOR BIOMEDICAL RESEARCH, S.A., priority 2012, dated 2018)",
  "key": {"serotonin transporter": {"molecular_target": "T1, serotonin transporter (Homo sapiens, UniProt P31645)", "T1 construct": "expressed in transfected cells; host or cells: CHO cells", "T1 sequence (P31645 whole entry)": "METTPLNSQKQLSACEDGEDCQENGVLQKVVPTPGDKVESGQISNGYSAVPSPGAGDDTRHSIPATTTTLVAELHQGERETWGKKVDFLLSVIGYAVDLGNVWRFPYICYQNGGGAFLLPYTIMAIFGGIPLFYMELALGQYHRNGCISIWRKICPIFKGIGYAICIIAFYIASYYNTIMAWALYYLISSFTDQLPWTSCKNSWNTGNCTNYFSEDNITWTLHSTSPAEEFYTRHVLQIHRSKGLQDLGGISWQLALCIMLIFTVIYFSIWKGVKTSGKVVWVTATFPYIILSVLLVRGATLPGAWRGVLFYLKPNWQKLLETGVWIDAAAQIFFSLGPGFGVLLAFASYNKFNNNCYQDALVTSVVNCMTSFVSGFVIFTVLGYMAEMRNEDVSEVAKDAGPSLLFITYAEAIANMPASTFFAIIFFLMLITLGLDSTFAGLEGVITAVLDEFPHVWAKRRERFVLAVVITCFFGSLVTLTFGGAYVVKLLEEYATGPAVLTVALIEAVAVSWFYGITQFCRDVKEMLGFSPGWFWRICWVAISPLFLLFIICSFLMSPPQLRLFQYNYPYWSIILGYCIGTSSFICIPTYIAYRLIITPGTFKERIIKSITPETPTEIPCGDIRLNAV", "experiment": "Serotonin transporter binding radioligand inhibition ([3H]-imipramine)", "conditions": "concentration 5 μM", "from_the_text": "The serotonin transporter removes serotonin from the synaptic deft. The serotonin transporter terminates the effects of […], enabling its reuse by the presynaptic neuron."}, "[1]": {"system": "J20 mouse model and wild-type mice", "experiment": "Morris water maze test in old wild-type and J20 mice", "format": "in vivo", "conditions": "30 mg/kg i.p.", "from_the_text": "Familial Alzheimer's disease (AD) is associated with mutations that lead to the production of the β-amyloid 42 (Aβ42) peptide, a constituent of the characteristic amyloid plaques diagnostic of AD. These mutations occur at the proteolytic cleavage sites in the gene encoding the amyloid precursor protein (APP), and in the genes for presenilins 1 and 2 (PSEN1 and PSEN2), enzymes involved in APP cleavage. […] The J20 mouse model is a suitable experimental animal model for testing the activity of drugs on cognitive performance because these mice show robust impairment in spatial learning and spatial reference memory (Karl, T. et al. Behav Brain Res 2012, 228(2): 392-97; Garcia-Barroso, C. et al. Neuropharmacology 2013, 64: 114-23). The effects of Example 2 on spatial memory and learning in the J20 mouse model using the Morris water maze test (Vorhees, Ch. V. and Williams, M. T. Nat Protoc 2006, 1(2): 848-58) were investigated in our laboratory.\nThe Morris water maze test was applied to 45 old male mice. Twenty wild-type and 25 J20 mice (n=10-11 for each group of treatment/genotype; 10-14 months of age) were treated with vehicle or Example 2 at 30 mg/kg i.p. Percent times in quadrants, escape latencies, distance to goal and other parameters were recorded and compared between groups to assess the compound's activity."}},
  "data": [
    {"smiles": "CNCCC(Oc1ccc(CCO)cc1)c1ccccc1.Cl", "note": "(single isomer, unassigned) [Example 2, 2-[4-[3-(Methylamino)-1-phenylpropoxy]phenyl]ethanol hydrochloride]", "values": [
      {"measurement": "inhibition at 5 µM", "setting": "serotonin transporter", "result": 82, "unit": "%"},
      {"measurement": "visuospatial memory and learning", "setting": "[1]; J20 mice", "result": "positive effect in some sessions"},
      {"measurement": "visuospatial memory and learning", "setting": "[1]; old wild type mice", "result": "increase in visuospatial memory and learning"}
    ]}
  ]
}
